Experimental data from patent US20020019356A1, “HYPERBARIC OXIGENATION (HBO) AS THE METHOD FOR ENHANCEMENT EFFICIENCY OF ANTI-HIV SUBSTANCES IN INHIBITION THE HUMAN IMMUNODEFICIENCY VIRUS (HIV) REPRODUCTION AND REDUCTION OF THE CYTOTOXIC EFFECT OF THOSE SUBSTANCES AS WELL” (priority 1998, published 2002).

Legend:
Supt1 cells = test: Viability of Supt1 cells with different AZT concentrations, with or without HBO (MTT-test); format: cell-based, human
Text: 4.) Monitoring the viability by means of direct cell calculation in a Goryaev counting chamber after colouring with the excepting vital stain 0.2% trypan blue. For the direct comparison of the amounts of living cells there is used the so-called MTT-method, which is based on the capability of living cells to reduce the yellow water-soluble tetrazole salt MTT (3-(4,5)-dimethylthiazol-2-ye)-2,5-diphenyl-bromide tetrazole) into insoluble intracellular MTT-formazan crystals, whereas dead cells are not capable to do this.
A concentrated MTT solution of 10 mg/ml is prepared with a phosphate buffer solution at pH 7.4 and brought into a hollow with the cells at a 10-fold dilution rate.
After incubation over 4 hours at 37° C. the supernatant is isolated with help of microdosing tips of a special design (S-tips).
Into the hollow is added […] of DMSO as solvent. The thereupon measurable optical density is within 540 to 590 nm, i.e. in the absorption range of formazan, is direct proportional to the quantity of living cells.
(§1) 18 million Supt1 cells in 60 ml of the growth medium RPMI-1640 with 10% fetal calf serum, 2 mM L-glutamine and […] genthamycin were placed in each of 2 plastic flasks (75 cm^3), mark Costar®, USA, one of which was subjected to HBO (Ox+), and the other was used for counterchecks with intact and infected cells without a HBO exposure (Ox−).
(§2) The HBO [6] was carried out in the oxygenous pressure chamber BLKS-303M. The pressure chamber was sealed, blown out with oxygen over 7 min till an oxygen concentration of 98-100% was obtained at the outlet of the pressure chamber, whereupon the oxygen pressure in said pressure chamber was increased up to 1.5 ate. The compression rate was 1,077 ate/min and the time period of isocompression was 40 min. After having finished the HBO process, the oxygen pressure was decreased to atmospheric during 6 min.
(§3) Over 40 min after a finish of the HBO—procedure in the each well of the 24-wells plate (Nuclon®, Denmark) added 45 μL of a cell suspension (3×10^5 cell/mL) and 50 μL of a growth substance with a different concentrations of AZT.
(§4) After an incubation over two hours with the virus-containing inoculum at 37° C., the cells were there-fold washed off from residual virus by centrifugation with 300 g over 10 min in the 30-fold volume of the medium and in every well of 24-wells plate were added […] of the growth medium with corresponding AZT-concentration.
The mixed samples were cultivated in a thermostat at 37° C., 5% CO2 and 80% moisture content. […]
The monitoring results of viability of oxygenated and not-oxygenated cells Supt1, inoculated HIV-1BRU with different AZT-concentrations, are shown in Table 1.

HIV-1BRU = test: Viral antigen content (polyclonal EIA) in supernatant of Supt1 culture infected with HIV-1BRU, with or without HBO; format: cell-based, Human Immunodeficiency Virus; design: unit not given here; conditions: Supt1/HIV-1BRU
Protocol: 1.) Determination of the total level of viral antigen expression by means of the method of polyclonal immunoenzyme analysis (EIA) [ABBOTT™ ELISA Kit]. […]
as §1, §2, §3
(§5) After an incubation over 2 hours at 37° C. an oxygenated and non-oxygenated samples were infected with HIV-1BRU (non-resistant to AZT) and HIV-1A216 (resistant to AZT),
(§6) After having centrifuged 24-wells plate at 300 g over 10 min, supernatant was taken out the wells by S-tips (besides […] of a cell's sediment), to which was added […] of the virus-containing supernatant of 480 TCID50.
as §4
(§7) The mixed samples were cultivated in a thermostat at 37° C., 5% CO2 and 80% moisture content.
The experimental procedure was identically with that described in Example 1, except that there were monitored HIV-BRU antigen expression by the method of polyclonal EIA.

HIV-1A216 = test: Viral antigen content (polyclonal EIA) in supernatant of Supt1 culture infected with AZT-resistant HIV-1A216, with or without HBO; format: cell-based, Human Immunodeficiency Virus; conditions: Supt1/HIV-1A216
Protocol: 1.) Determination of the total level of viral antigen expression by means of the method of polyclonal immunoenzyme analysis (EIA) [ABBOTT™ ELISA Kit].
The values of 50 per cent effective AZT dose (ED50) were calculated conformably to oxidised and non-oxidised cells subsequently infected by HIV and treated by AZT in various concentrations.
ED50 values were derived according to the linear regression resulting averaged values of the optical density signal V(%) depending on the logarithm of AZT doses (10^−6; 10^−7; . . . 10^−12 M).[8]
Regression lines are determined with the following formula: […]
where <> and <> are regression coefficients, calculated by mean square root method.
as §1, §2, §3, §5, §6, §4, §7
The experimental procedure was identically with that described in Example 1, except that there were monitored HIV-1A216 antigen expression by the method of polyclonal EIA.

[1] = AZT 10^−11 M, day 3 after infection, OX+
[2] = AZT 10^−11 M, day 3 after infection, OX−

Cc1cn([C@H]2C[C@H](N=[N+]=[N-])[C@@H](CO)O2)c(=O)[nH]c1=O [AZT, 3-azido-2,3-didezoxythimidim]
viability of the cell culture Supt1 (MTT-test) (Supt1 cells; AZT 10^−3 M, day 2 after AZT addition, HBO+): 52.3 per cents
viability of the cell culture Supt1 (MTT-test) (Supt1 cells; AZT 10^−3 M, day 2 after AZT addition, HBO−): 45.3 per cents
viability of the cell culture Supt1 (MTT-test) (Supt1 cells; AZT 10^−3 M, day 3 after AZT addition, HBO+): 55.6 per cents
viability of the cell culture Supt1 (MTT-test) (Supt1 cells; AZT 10^−3 M, day 3 after AZT addition, HBO−): 51.1 per cents
viability of the cell culture Supt1 (MTT-test) (Supt1 cells; AZT 10^−3 M, day 5 after AZT addition, HBO+): 35.0 per cents
viability of the cell culture Supt1 (MTT-test) (Supt1 cells; AZT 10^−3 M, day 5 after AZT addition, HBO−): 25.3 per cents
viability of the cell culture Supt1 (MTT-test) (Supt1 cells; AZT 10^−4 M, day 2 after AZT addition, HBO+): 65.2 per cents
viability of the cell culture Supt1 (MTT-test) (Supt1 cells; AZT 10^−4 M, day 2 after AZT addition, HBO−): 63.1 per cents
viability of the cell culture Supt1 (MTT-test) (Supt1 cells; AZT 10^−4 M, day 3 after AZT addition, HBO+): 73.6 per cents
viability of the cell culture Supt1 (MTT-test) (Supt1 cells; AZT 10^−4 M, day 3 after AZT addition, HBO−): 50.5 per cents
viability of the cell culture Supt1 (MTT-test) (Supt1 cells; AZT 10^−4 M, day 5 after AZT addition, HBO+): 61.1 per cents
viability of the cell culture Supt1 (MTT-test) (Supt1 cells; AZT 10^−4 M, day 5 after AZT addition, HBO−): 55.1 per cents
viability of the cell culture Supt1 (MTT-test) (Supt1 cells; AZT 10^−5 M, day 2 after AZT addition, HBO+): 79.3 per cents
viability of the cell culture Supt1 (MTT-test) (Supt1 cells; AZT 10^−5 M, day 2 after AZT addition, HBO−): 72.3 per cents
viability of the cell culture Supt1 (MTT-test) (Supt1 cells; AZT 10^−5 M, day 3 after AZT addition, HBO+): 85.4 per cents
viability of the cell culture Supt1 (MTT-test) (Supt1 cells; AZT 10^−5 M, day 3 after AZT addition, HBO−): 70.0 per cents
viability of the cell culture Supt1 (MTT-test) (Supt1 cells; AZT 10^−5 M, day 5 after AZT addition, HBO+): 80.5 per cents
viability of the cell culture Supt1 (MTT-test) (Supt1 cells; AZT 10^−5 M, day 5 after AZT addition, HBO−): 71.9 per cents
viability of the cell culture Supt1 (MTT-test) (Supt1 cells; AZT 10^−6 M, day 2 after AZT addition, HBO+): 89.3 per cents
viability of the cell culture Supt1 (MTT-test) (Supt1 cells; AZT 10^−6 M, day 2 after AZT addition, HBO−): 52.7 per cents
viability of the cell culture Supt1 (MTT-test) (Supt1 cells; AZT 10^−6 M, day 3 after AZT addition, HBO+): 96.0 per cents
viability of the cell culture Supt1 (MTT-test) (Supt1 cells; AZT 10^−6 M, day 3 after AZT addition, HBO−): 80.2 per cents
viability of the cell culture Supt1 (MTT-test) (Supt1 cells; AZT 10^−6 M, day 5 after AZT addition, HBO+): 87.8 per cents
viability of the cell culture Supt1 (MTT-test) (Supt1 cells; AZT 10^−6 M, day 5 after AZT addition, HBO−): 73.0 per cents
viability of the cell culture Supt1 (MTT-test) (Supt1 cells; AZT 10^−7 M, day 2 after AZT addition, HBO+): 93.0 per cents
viability of the cell culture Supt1 (MTT-test) (Supt1 cells; AZT 10^−7 M, day 2 after AZT addition, HBO−): 53.8 per cents
viability of the cell culture Supt1 (MTT-test) (Supt1 cells; AZT 10^−7 M, day 3 after AZT addition, HBO+): 95.2 per cents
viability of the cell culture Supt1 (MTT-test) (Supt1 cells; AZT 10^−7 M, day 3 after AZT addition, HBO−): 114.1 per cents
viability of the cell culture Supt1 (MTT-test) (Supt1 cells; AZT 10^−7 M, day 5 after AZT addition, HBO+): 92.0 per cents
viability of the cell culture Supt1 (MTT-test) (Supt1 cells; AZT 10^−7 M, day 5 after AZT addition, HBO−): 79.2 per cents
viability of the cell culture Supt1 (MTT-test) (Supt1 cells; AZT 10^−8 M, day 2 after AZT addition, HBO+): 107.8 per cents
viability of the cell culture Supt1 (MTT-test) (Supt1 cells; AZT 10^−8 M, day 2 after AZT addition, HBO−): 100.6 per cents
viability of the cell culture Supt1 (MTT-test) (Supt1 cells; AZT 10^−8 M, day 3 after AZT addition, HBO+): 100.9 per cents
viability of the cell culture Supt1 (MTT-test) (Supt1 cells; AZT 10^−8 M, day 3 after AZT addition, HBO−): 118.3 per cents
viability of the cell culture Supt1 (MTT-test) (Supt1 cells; AZT 10^−8 M, day 5 after AZT addition, HBO+): 85.6 per cents
viability of the cell culture Supt1 (MTT-test) (Supt1 cells; AZT 10^−8 M, day 5 after AZT addition, HBO−): 85.9 per cents
viability of the cell culture Supt1 (MTT-test) (Supt1 cells; AZT 10^−9 M, day 2 after AZT addition, HBO+): 98.3 per cents
viability of the cell culture Supt1 (MTT-test) (Supt1 cells; AZT 10^−9 M, day 2 after AZT addition, HBO−): 95.2 per cents
viability of the cell culture Supt1 (MTT-test) (Supt1 cells; AZT 10^−9 M, day 3 after AZT addition, HBO+): 102.1 per cents
viability of the cell culture Supt1 (MTT-test) (Supt1 cells; AZT 10^−9 M, day 3 after AZT addition, HBO−): 98.6 per cents
viability of the cell culture Supt1 (MTT-test) (Supt1 cells; AZT 10^−9 M, day 5 after AZT addition, HBO+): 97.3 per cents
viability of the cell culture Supt1 (MTT-test) (Supt1 cells; AZT 10^−9 M, day 5 after AZT addition, HBO−): 80.1 per cents
Content of viral antigen in supernatant (HIV-1BRU; AZT 10^−7 M, day 3 after infection, OX+): 8.8
Content of viral antigen in supernatant (HIV-1BRU; AZT 10^−7 M, day 3 after infection, OX−): 8.0
Content of viral antigen in supernatant (HIV-1BRU; AZT 10^−7 M, day 5 after infection, OX+): 9.9
Content of viral antigen in supernatant (HIV-1BRU; AZT 10^−7 M, day 5 after infection, OX−): 50.2
Content of viral antigen in supernatant (HIV-1BRU; AZT 10^−9 M, day 3 after infection, OX+): 7.4
Content of viral antigen in supernatant (HIV-1BRU; AZT 10^−9 M, day 3 after infection, OX−): 14.5
Content of viral antigen in supernatant (HIV-1BRU; AZT 10^−9 M, day 5 after infection, OX+): 21.5
Content of viral antigen in supernatant (HIV-1BRU; AZT 10^−9 M, day 5 after infection, OX−): 82.3
Content of viral antigen in supernatant (HIV-1BRU; [1]): 8.7
Content of viral antigen in supernatant (HIV-1BRU; [2]): 14.4
Content of viral antigen in supernatant (HIV-1BRU; AZT 10^−11 M, day 5 after infection, OX+): 62.0
Content of viral antigen in supernatant (HIV-1BRU; AZT 10^−11 M, day 5 after infection, OX−): 83.4
Content of viral antigen in supernatant (HIV-1A216; AZT 10^−6 M, day 2 after infection, OX+): 20.5
Content of viral antigen in supernatant (HIV-1A216; AZT 10^−6 M, day 2 after infection, OX−): 21.8
Content of viral antigen in supernatant (HIV-1A216; AZT 10^−6 M, day 3 after infection, OX+): 33.3
Content of viral antigen in supernatant (HIV-1A216; AZT 10^−6 M, day 3 after infection, OX−): 51.1
Content of viral antigen in supernatant (HIV-1A216; AZT 10^−8 M, day 2 after infection, OX+): 29.3
Content of viral antigen in supernatant (HIV-1A216; AZT 10^−8 M, day 2 after infection, OX−): 33.1
Content of viral antigen in supernatant (HIV-1A216; AZT 10^−8 M, day 3 after infection, OX+): 51.8
Content of viral antigen in supernatant (HIV-1A216; AZT 10^−8 M, day 3 after infection, OX−): 70.7
Content of viral antigen in supernatant (HIV-1A216; AZT 10^−11 M, day 2 after infection, OX+): 29.6
Content of viral antigen in supernatant (HIV-1A216; AZT 10^−11 M, day 2 after infection, OX−): 48.2
Content of viral antigen in supernatant (HIV-1A216; [1]): 44.5
Content of viral antigen in supernatant (HIV-1A216; [2]): 92.1
